Assay results: patent US4407803A, “Antiinflammatory 1-(quinolinyl)-2-pyrazoline derivatives” (Abbott Laboratories, priority 1981, dated 1983)

Tests used:
dermal Arthus reaction = experiment: reverse passive Arthus assay in rats (dermal lesion); format: in vivo, Male Sprague-Dawley rats; settings: 100 mg/kg, oral, 30 min before anti-B.S.A.; lesion measured at four hours
Description: Proc. 35, 774 (1976). Each compound was administered orally to a group of four animals.
The […] passive Arthus reaction test in rats is conducted as follows: Male Sprague-Dawley rats weighing approximately 130-160 g. are used, 4 rats per group. All animals are injected intravenously with 0.5 ml. 0.075% Bovine Serum Albumin (B.S.A.)+2% Evans Blue solution. Each rat then receives an oral dose of drug; one drug is administered per group.
Thirty minutes subsequent to drug dosing, each animal is injected intradermally with 0.05 ml. 1.44% Anti-B.S.A. into the dorsal skin. Four hours later the animals are sacrificed, the dorsal skin reflexed, and the lesion excised. Two perpendicular diameters of each lesion are measured. The average diameters of the lesions from the treated groups are compared with the average diameters from the control group to determine any drug effect.

carrageenin pleurisy = experiment: modification of the carrageenin pleurisy assay (reduction in accumulation of exudate volume and leukocytes); format: in vivo; settings: for % Inhibition Cells: leukocytes
From the text: The compounds of the present invention have anti-inflammatory activity and inhibitory effect against Type III hypersensitivity reaction. These compounds are useful for the therapy of rheumatoid arthritis, other inflammatory conditions, Type III hypersensitivity diseases and in diseases in which polymorphonuclear leukocytes accumulation contributes to the pathology. The anti-inflammatory activity of these compounds was established by using a modification of the carrageenin pleurisy assay described by Vinegar et al. Proc. Soc. Exp. Biol. Med. 143:711 (1973).

Row | SMILES | % Inhibition of lesion of dermal Arthus reaction (dermal Arthus reaction) | % Inhibition Volume exudates (carrageenin pleurisy; Dose 60 (dose unit not given)) | % Inhibition Cells (carrageenin pleurisy; Dose 60 (dose unit not given)) | % Inhibition Volume exudates (carrageenin pleurisy; Dose 100 (dose unit not given)) | % Inhibition Cells (carrageenin pleurisy; Dose 100 (dose unit not given))
1 | N=C1CCN(c2ccc3ccccc3n2)N1 [1-(2'-quinolinyl)-3-iminopyrazolidine, 1-(2'-quinolinyl)-3-imino-pyrazolidine] | 72% |  |  |  | 
2 | N=C1CCN(c2cnc3ccccc3c2)N1 [1-(3'-quinolinyl)-3-iminopyrazolidine, 1-(3'-Quinolinyl)-3-iminopyrazolidine] | 37% | 86% | 71% |  | 
3 | N=C1CCN(c2ccnc3cc(Cl)ccc23)N1 [1-(7'-chloro-4'-quinolinyl)-3-imino pyrazolidine] | 53% |  |  |  | 
4 | CCCCC1C(=O)N(c2ccccc2)N(c2ccccc2)C1=O [Phenylbutazone, reference compound] |  |  |  | 59% | 13%
